Literature values in US20210106592A1, “METHODS AND COMPOSITIONS FOR THE TREATMENT OF TRAUMATIC BRAIN INJURY (TBI) AND RELATED DISORDERS” (priority 2017, published 2021).

Legend:
noradrenaline reuptake = noradrenaline reuptake (Homo sapiens, UniProt P23975)
[1] = biological target: serotonin (5-HT) reuptake (Homo sapiens, UniProt P31645)
sigma = conditions: recent basic research
cholinergic receptors = conditions: in vitro; last in the decreasing order H1, H2 > 5-HT2 > D2, D1 > a1 > cholinergic
[2] = test system: generalized anxiety disorders; conditions: patients with generalized anxiety disorders; versus placebo and alprazolam

Chain of noradrenaline reuptake (P23975 whole entry): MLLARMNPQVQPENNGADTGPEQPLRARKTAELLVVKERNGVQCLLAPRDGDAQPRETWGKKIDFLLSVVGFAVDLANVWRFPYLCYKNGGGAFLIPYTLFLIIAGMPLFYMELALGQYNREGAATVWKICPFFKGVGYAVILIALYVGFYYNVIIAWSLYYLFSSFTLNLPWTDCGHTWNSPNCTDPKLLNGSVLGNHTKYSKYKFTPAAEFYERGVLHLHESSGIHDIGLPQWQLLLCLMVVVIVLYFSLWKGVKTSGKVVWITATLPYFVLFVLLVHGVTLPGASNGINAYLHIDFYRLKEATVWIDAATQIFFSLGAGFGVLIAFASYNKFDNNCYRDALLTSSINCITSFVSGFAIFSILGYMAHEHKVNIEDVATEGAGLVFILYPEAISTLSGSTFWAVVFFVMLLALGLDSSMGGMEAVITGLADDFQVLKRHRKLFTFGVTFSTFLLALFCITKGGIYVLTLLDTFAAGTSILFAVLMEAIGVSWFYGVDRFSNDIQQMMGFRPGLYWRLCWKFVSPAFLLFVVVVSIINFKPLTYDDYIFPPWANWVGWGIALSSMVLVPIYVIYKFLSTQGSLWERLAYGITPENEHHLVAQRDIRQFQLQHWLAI
Chain of serotonin (5-HT) reuptake (P31645 whole entry): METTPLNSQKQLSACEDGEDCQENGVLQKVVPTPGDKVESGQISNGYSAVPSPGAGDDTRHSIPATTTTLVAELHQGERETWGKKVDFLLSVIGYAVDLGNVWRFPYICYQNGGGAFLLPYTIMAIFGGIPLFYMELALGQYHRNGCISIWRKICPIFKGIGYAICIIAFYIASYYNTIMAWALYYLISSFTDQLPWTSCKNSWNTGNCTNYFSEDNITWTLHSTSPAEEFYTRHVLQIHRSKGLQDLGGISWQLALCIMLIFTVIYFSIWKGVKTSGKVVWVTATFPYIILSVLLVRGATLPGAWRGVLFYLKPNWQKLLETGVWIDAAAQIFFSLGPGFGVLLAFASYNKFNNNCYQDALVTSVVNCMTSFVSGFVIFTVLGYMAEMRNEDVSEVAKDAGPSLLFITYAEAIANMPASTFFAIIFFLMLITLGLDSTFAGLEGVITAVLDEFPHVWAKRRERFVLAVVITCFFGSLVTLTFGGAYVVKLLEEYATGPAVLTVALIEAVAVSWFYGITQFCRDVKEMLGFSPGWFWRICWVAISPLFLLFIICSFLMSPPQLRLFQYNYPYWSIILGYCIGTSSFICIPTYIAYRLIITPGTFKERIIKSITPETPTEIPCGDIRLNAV

## Cl.Cl.OCCN1CCN(CCCN2c3ccccc3C=Cc3ccccc32)CC1 [opipramol, 4-[3-(5H-dibenz[b,f]-azepine-5-yl)-propyl]-1-piperazine-ethanol dihydrochloride]
Noradrenaline reuptake
  reuptake inhibiting properties for noradrenaline: without reuptake inhibiting properties
[1]
  reuptake inhibiting properties for serotonin (5-HT): without reuptake inhibiting properties
sigma
  sigma ligand strength: strong sigma ligand
Cholinergic receptors
  blockade of cholinergic receptors: very weakly
[2]
  anxiolytic efficacy: superiority over placebo and similar efficacy to alprazolam
